Results on four molecules are retold here after ChEMBL document CHEMBL1154795, “Aptamers as a model for functional evaluation of LNA and 2'-amino LNA” (Bioorg Med Chem Lett, 2009).

As usually defined, the Kd is a measure of binding affinity in units of concentration. A low value points to higher affinity.

The experiment is described as follows: Binding affinity to avidin by surface plasmon resonance assay. (In SPR one partner is held on a chip, and binding of the other changes the refractive index at the surface.)
`Cc1cn([C@@H]2O[C@H](COP(=O)(O)O[C@H]3[C@@H](O)[C@H](n4ccc(N)nc4=O)O[C@@H]3COP(=O)(O)O[C@H]3[C@@H](O)[C@H](n4cnc5c(=O)[nH]c(N)nc54)O[C@@H]3COP(=O)(O)O[C@H]3[C@@H](O)[C@H](n4cnc5c(=O)[nH]c(N)nc54)O[C@@H]3CO)[C@@H](OP(=O)(O)OC[C@H]3O[C@@H](n4cnc5c(N)ncnc54)[C@H](O)[C@@H]3OP(=O)(O)OC[C@H]3O[C@@H](n4cnc5c(N)ncnc54)[C@H](O)[C@@H]3OP(=O)(O)OC[C@H]3O[C@@H](n4cc(C)c(=O)[nH]c4=O)[C@H](O)[C@@H]3OP(=O)(O)OC[C@H]3O[C@@H](n4cnc5c(N)ncnc54)[C@H](O)[C@@H]3OP(=O)(O)OC[C@H]3O[C@@H](n4cnc5c(=O)[nH]c(N)nc54)[C@H](O)[C@@H]3OP(=O)(O)OC[C@H]3O[C@@H](n4cnc5c(N)ncnc54)[C@H](O)[C@@H]3OP(=O)(O)OC[C@H]3O[C@@H](n4ccc(N)nc4=O)[C@H](O)[C@@H]3OP(=O)(O)OC[C@H]3O[C@@H](n4ccc(N)nc4=O)[C@H](O)[C@@H]3OP(=O)(O)OC[C@H]3O[C@@H](n4cc(C)c(=O)[nH]c4=O)[C@H](O)[C@@H]3OP(=O)(O)OC[C@H]3O[C@@H](n4cnc5c(=O)[nH]c(N)nc54)[C@H](O)[C@@H]3OP(=O)(O)OC[C@H]3O[C@@H](n4cnc5c(=O)[nH]c(N)nc54)[C@H](O)[C@@H]3OP(=O)(O)OC[C@H]3O[C@@H](n4cnc5c(=O)[nH]c(N)nc54)[C@H](O)[C@@H]3OP(=O)(O)OC[C@H]3O[C@@H](n4cnc5c(=O)[nH]c(N)nc54)[C@H](O)[C@@H]3OP(=O)(O)OC[C@H]3O[C@@H](n4cc(C)c(=O)[nH]c4=O)[C@H](O)[C@@H]3OP(=O)(O)OC[C@H]3O[C@@H](n4cc(C)c(=O)[nH]c4=O)[C@H](O)[C@@H]3OP(=O)(O)OC[C@H]3O[C@@H](n4cnc5c(=O)[nH]c(N)nc54)[C@H](O)[C@@H]3OP(=O)(O)OC[C@H]3O[C@@H](n4cnc5c(=O)[nH]c(N)nc54)[C@H](O)[C@@H]3OP(=O)(O)O)[C@H]2O)c(=O)[nH]c1=O` came in with an equilibrium dissociation constant (Kd) of 9.78 nM.
To `COP(=O)(O)O[C@H]1[C@@H](O)[C@H](n2cnc3c(=O)[nH]c(N)nc32)O[C@@H]1COP(=O)(O)O[C@H]1[C@@H](O)[C@H](n2cnc3c(=O)[nH]c(N)nc32)O[C@@H]1COP(=O)(O)O[C@H]1[C@@H](O)[C@H](n2cc(C)c(=O)[nH]c2=O)O[C@@H]1COP(=O)(O)O[C@H]1[C@H]2NC[C@]1(COP(=O)(O)O[C@H]1[C@@H](O)[C@H](n3cnc4c(=O)[nH]c(N)nc43)O[C@@H]1COP(=O)(O)O[C@H]1[C@@H](O)[C@H](n3cnc4c(=O)[nH]c(N)nc43)O[C@@H]1COP(=O)(O)O[C@H]1[C@@H](O)[C@H](n3cnc4c(=O)[nH]c(N)nc43)O[C@@H]1COP(=O)(O)O[C@H]1[C@@H](O)[C@H](n3cnc4c(=O)[nH]c(N)nc43)O[C@@H]1COP(=O)(O)O[C@H]1[C@@H](O)[C@H](n3cc(C)c(=O)[nH]c3=O)O[C@@H]1COP(=O)(O)O[C@H]1[C@@H](O)[C@H](n3ccc(N)nc3=O)O[C@@H]1COP(=O)(O)O[C@H]1[C@@H](O)[C@H](n3ccc(N)nc3=O)O[C@@H]1COP(=O)(O)O[C@H]1[C@@H](O)[C@H](n3cnc4c(N)ncnc43)O[C@@H]1COP(=O)(O)O[C@H]1[C@@H](O)[C@H](n3cnc4c(=O)[nH]c(N)nc43)O[C@@H]1COP(=O)(O)O[C@H]1[C@@H](O)[C@H](n3cnc4c(N)ncnc43)O[C@@H]1COP(=O)(O)O[C@H]1[C@@H](O)[C@H](n3cc(C)c(=O)[nH]c3=O)O[C@@H]1COP(=O)(O)O[C@H]1[C@@H](O)[C@H](n3cnc4c(N)ncnc43)O[C@@H]1COP(=O)(O)O[C@H]1[C@@H](O)[C@H](n3cnc4c(N)ncnc43)O[C@@H]1COP(=O)(O)O[C@H]1[C@@H](O)[C@H](n3cc(C)c(=O)[nH]c3=O)O[C@@H]1COP(=O)(O)O[C@H]1[C@@H](O)[C@H](n3ccc(N)nc3=O)O[C@@H]1COP(=O)(O)O[C@H]1[C@H]3OC[C@]1(COP(=O)(O)O[C@H]1[C@@H](O)[C@H](n4cnc5c(=O)[nH]c(N)nc54)O[C@@H]1CO)O[C@H]3n1cnc3c(=O)[nH]c(N)nc31)O[C@H]2n1cc(C)c(=O)[nH]c1=O` belongs 4.2 nM.
Take `Cc1cn([C@@H]2O[C@H](COP(=O)(O)O[C@H]3[C@@H](O)[C@H](n4ccc(N)nc4=O)O[C@@H]3COP(=O)(O)O[C@H]3[C@@H](O)[C@H](n4cnc5c(=O)[nH]c(N)nc54)O[C@@H]3COP(=O)(O)O[C@H]3[C@@H](O)[C@H](n4cnc5c(=O)[nH]c(N)nc54)O[C@@H]3CO)[C@@H](OP(=O)(O)OC[C@H]3O[C@@H](n4cnc5c(N)ncnc54)[C@H](O)[C@@H]3OP(=O)(O)OC[C@H]3O[C@@H](n4cnc5c(N)ncnc54)[C@H](O)[C@@H]3OP(=O)(O)OC[C@H]3O[C@@H](n4cc(C)c(=O)[nH]c4=O)[C@H](O)[C@@H]3OP(=O)(O)OC[C@H]3O[C@@H](n4cnc5c(N)ncnc54)[C@H](O)[C@@H]3OP(=O)(O)OC[C@H]3O[C@@H](n4cnc5c(=O)[nH]c(N)nc54)[C@H](O)[C@@H]3OP(=O)(O)OC[C@H]3O[C@@H](n4cnc5c(N)ncnc54)[C@H](O)[C@@H]3OP(=O)(O)OC[C@H]3O[C@@H](n4ccc(N)nc4=O)[C@H](O)[C@@H]3OP(=O)(O)OC[C@H]3O[C@@H](n4ccc(N)nc4=O)[C@H](O)[C@@H]3OP(=O)(O)OC[C@H]3O[C@@H](n4cc(C)c(=O)[nH]c4=O)[C@H](O)[C@@H]3OP(=O)(O)OC[C@H]3O[C@@H](n4cnc5c(=O)[nH]c(N)nc54)[C@H](O)[C@@H]3OP(=O)(O)OC[C@H]3O[C@@H](n4cnc5c(=O)[nH]c(N)nc54)[C@H](O)[C@@H]3OP(=O)(O)O)[C@H]2O)c(=O)[nH]c1=O`: binding was characterised by a dissociation constant (Kd) of 13.1 nM.
To `Cc1cn([C@@H]2O[C@H](COP(=O)(O)O[C@H]3[C@@H](O)[C@H](n4ccc(N)nc4=O)O[C@@H]3COP(=O)(O)O[C@H]3[C@H]4OC[C@]3(COP(=O)(O)O[C@H]3[C@@H](O)[C@H](n5cnc6c(=O)[nH]c(N)nc65)O[C@@H]3CO)O[C@H]4n3cnc4c(=O)[nH]c(N)nc43)[C@@H](OP(=O)(O)OC[C@H]3O[C@@H](n4cnc5c(N)ncnc54)[C@H](O)[C@@H]3OP(=O)(O)OC[C@H]3O[C@@H](n4cnc5c(N)ncnc54)[C@H](O)[C@@H]3OP(=O)(O)OC[C@H]3O[C@@H](n4cc(C)c(=O)[nH]c4=O)[C@H](O)[C@@H]3OP(=O)(O)OC[C@H]3O[C@@H](n4cnc5c(N)ncnc54)[C@H](O)[C@@H]3OP(=O)(O)OC[C@H]3O[C@@H](n4cnc5c(=O)[nH]c(N)nc54)[C@H](O)[C@@H]3OP(=O)(O)OC[C@H]3O[C@@H](n4cnc5c(N)ncnc54)[C@H](O)[C@@H]3OP(=O)(O)OC[C@H]3O[C@@H](n4ccc(N)nc4=O)[C@H](O)[C@@H]3OP(=O)(O)OC[C@H]3O[C@@H](n4ccc(N)nc4=O)[C@H](O)[C@@H]3OP(=O)(O)OC[C@H]3O[C@@H](n4cc(C)c(=O)[nH]c4=O)[C@H](O)[C@@H]3OP(=O)(O)OC[C@H]3O[C@@H](n4cnc5c(=O)[nH]c(N)nc54)[C@H](O)[C@@H]3OP(=O)(O)OC[C@H]3O[C@@H](n4cnc5c(=O)[nH]c(N)nc54)[C@H](O)[C@@H]3OP(=O)(O)OC[C@H]3O[C@@H](n4cnc5c(=O)[nH]c(N)nc54)[C@H](O)[C@@H]3OP(=O)(O)OC[C@H]3O[C@@H](n4cnc5c(=O)[nH]c(N)nc54)[C@H](O)[C@@H]3OP(=O)(O)OC[C@H]3O[C@@H](n4cc(C)c(=O)[nH]c4=O)[C@H](O)[C@@H]3OP(=O)(O)OC[C@@]34CN[C@@H]([C@H](n5cc(C)c(=O)[nH]c5=O)O3)[C@@H]4OP(=O)(O)OC[C@H]3O[C@@H](n4cnc5c(=O)[nH]c(N)nc54)[C@H](O)[C@@H]3OP(=O)(O)OC[C@H]3O[C@@H](n4cnc5c(=O)[nH]c(N)nc54)[C@H](O)[C@@H]3OP(=O)(O)O)[C@H]2O)c(=O)[nH]c1=O` belongs 4.97 nM.
